Reference: ChEMBL document CHEMBL4732125, “Structures/cytotoxicity/selectivity relationship of natural steroidal saponins against GSCs and primary mechanism of tribulosaponin A” (Eur J Med Chem, 2021)
Calls of active or inactive are those of the source. No cut-off for these calls is given here.

Legend:
[1] = tested on: GSC-3; test: Cytotoxicity against human GSC3 cells assessed as inhibition of cell growth at 20 uM after 5 days; type: functional, cell-based; details: time 5.0 day
[2] = Induction of apoptosis in human GSC-3 cells assessed as necrotic cells at 20 uM incubated for 36 hrs by Annexin V-FITC/PI staining based flow cytometric analysis (reference value: 1.42%); type: functional
[3] = tested on: GSC-3; test: Induction of apoptosis in human GSC-3 cells assessed as cell shrank at 20 uM; type: functional, cell-based
[4] = Cytotoxicity against human GSC18 cells assessed as reduction in cell viability after 72 hrs by MTS assay; type: functional, cell-based, GSC-18; details: GSC18, 72 h
[5] = tested on: HEK-293T; test: Cytotoxicity against human 293T cells assessed as reduction in cell viability after 72 hrs by MTS assay; type: cell-based; details: Homo sapiens, HEK-293T
[6] = tested on: T98G; test: Cytotoxicity against human T98G cells assessed as inhibition of cell growth at 20 uM after 5 days; type: cell-based; details: 120 h, time 5 day
[7] = tested on: U-87 MG; test: Inhibition of colony formation in human U-87 MG cells assessed as tumor spheres damage at 15 uM by crystal violet staining based assay; type: functional, cell-based; details: U-87MG ATCC
[8] = tested on: GSC-3; test: Induction of apoptosis in human GSC-3 cells assessed as reduction in Bcl-2 protein expression at 7.5 to 20 uM after 48 hrs by Western blotting analysis; type: functional, cell-based; details: dose 7.5-20 µM
[9] = Induction of apoptosis in human GSC-3 cells assessed as early apoptotic cells at 20 uM incubated for 36 hrs by Annexin V-FITC/PI staining based flow cytometric analysis (reference value: 6.99%); type: functional
[10] = tested on: U-87 MG; test: Cytotoxicity against human U-87 MG cells assessed as inhibition of cell growth at 20 uM after 5 days; type: cell-based; details: u-87mg atcc, 120 h, time 5 day
[11] = Induction of apoptosis in human GSC-3 cells assessed as necrotic cells at 7.5 uM incubated for 36 hrs by Annexin V-FITC/PI staining based flow cytometric analysis (reference value: 1.42%); type: functional
[12] = tested on: GSC-18; test: Cytotoxicity against human GSC18 cells assessed as inhibition of cell growth at 20 uM after 5 days; type: functional, cell-based; details: time 5.0 day
[13] = tested on: HEK-293T; test: Induction of apoptosis in human 293T cells assessed as accumulation of ROS by measuring increase in NCF1 expression at 15 uM after 48 hrs by transcriptome analysis; type: functional, cell-based
[14] = Induction of apoptosis in human GSC-3 cells assessed as late apoptotic cells at 20 uM incubated for 36 hrs by Annexin V-FITC/PI staining based flow cytometric analysis (reference value: 7.79%); type: functional
[15] = tested on: T98G; test: Cytotoxicity against human T98G assessed as reduction in cell viability after 72 hrs by MTS assay; type: cell-based; details: Homo sapiens, T98G
[16] = tested on: T98G; test: Inhibition of colony formation in human […] cells assessed as decrease in number of tumor spheres at 15 uM by crystal violet staining based assay; type: functional, cell-based
[17] = tested on: GSC-18; test: Antiproliferative activity against human GSC-18 cells assessed as inhibition of cell growth at 15 uM after 48 hrs by BrdU incorporation assay; type: functional, cell-based
[18] = tested on: U-87 MG; test: Cytotoxicity against human U-87 MG cells assessed as reduction in cell viability after 72 hrs by MTS assay; type: cell-based, U-87MG ATCC; details: Homo sapiens, U-87 MG
[19] = Induction of apoptosis in human GSC-3 cells assessed as early apoptotic cells at 7.5 uM incubated for 36 hrs by Annexin V-FITC/PI staining based flow cytometric analysis (reference value: 6.99%); type: functional
[20] = Induction of apoptosis in human GSC-3 cells assessed as viable cells at 7.5 uM incubated for 36 hrs by Annexin V-FITC/PI staining based flow cytometric analysis (reference value: 83.8%); type: functional; details: read-out: Activity
[21] = tested on: GSC-3; test: Inhibition of colony formation in human GSC-3 cells assessed as tumor spheres damage at 15 uM after 2 weeks by crystal violet staining based assay; type: functional, cell-based
[22] = tested on: GSC-3; test: Antiproliferative activity against human GSC-3 cells assessed as inhibition of cell growth at 15 uM after 48 hrs by BrdU incorporation assay; type: functional, cell-based
[23] = Induction of apoptosis in human GSC-3 cells assessed as late apoptotic cells at 10 uM incubated for 36 hrs by Annexin V-FITC/PI staining based flow cytometric analysis (reference value: 7.79%); type: functional
[24] = tested on: U-87 MG; test: Inhibition of colony formation in human U-87 MG cells assessed as decrease in number of tumor spheres at 15 uM by crystal violet staining based assay; type: functional, cell-based; details: U-87MG ATCC
[25] = tested on: GSC-18; test: Induction of apoptosis in human GSC-18 cells assessed as increase in cleaved caspase 3 at 15 uM after 48 hrs by immunofluorescence assay; type: functional, cell-based
[26] = tested on: HUVEC; test: Cytotoxicity against HUVEC assessed as inhibition of cell growth at 20 uM after 5 days; type: cell-based; details: human, 120 h, time 5 day
[27] = Induction of apoptosis in human GSC-3 cells assessed as late apoptotic cells at 7.5 uM incubated for 36 hrs by Annexin V-FITC/PI staining based flow cytometric analysis (reference value: 7.79%); type: functional
[28] = Cytotoxicity against human GSC3 cells assessed as reduction in cell viability after 72 hrs by MTS assay; type: functional, cell-based; details: GSC-3, 72 h
[29] = tested on: GSC-18; test: Induction of apoptosis in human GSC-18 cells assessed as cell shrank at 20 uM; type: functional, cell-based
[30] = tested on: GSC-3; test: Induction of apoptosis in human GSC-3 cells assessed as ROS accumulation at 4 to 12 uM after 3 hrs in presence of NAC by DCFH-DA assay; type: functional, cell-based; details: dose 4-12 µM
[31] = tested on: GSC-18; test: Induction of apoptosis in human GSC-18 cells assessed as appearance of round and detached cells at 20 uM; type: functional, cell-based
[32] = tested on: GSC-3; test: Inhibition of colony formation in human GSC-3 cells assessed as decrease in number of tumor spheres at 15 uM after 2 weeks by crystal violet staining based assay; type: functional, cell-based
[33] = Induction of apoptosis in human GSC-3 cells assessed as viable cells at 10 uM incubated for 36 hrs by Annexin V-FITC/PI staining based flow cytometric analysis (reference value: 83.8%); type: functional; details: read-out: Activity
[34] = tested on: GSC-3; test: Induction of apoptosis in human GSC-3 cells assessed as accumulation of ROS by measuring increase in NCF1 expression at 15 uM after 48 hrs by transcriptome analysis; type: functional, cell-based
[35] = Induction of apoptosis in human GSC-3 cells assessed as viable cells at 20 uM incubated for 36 hrs by Annexin V-FITC/PI staining based flow cytometric analysis (reference value: 83.8%); type: functional; details: read-out: Activity
[36] = tested on: GSC-3; test: Induction of apoptosis in human GSC-3 cells assessed as appearance of round and detached cells at 20 uM; type: functional, cell-based
[37] = tested on: T98G; test: Inhibition of colony formation in human […] cells assessed as tumor spheres damage at 15 uM by crystal violet staining based assay; type: functional, cell-based
[38] = tested on: GSC-3; test: Induction of apoptosis in human GSC-3 cells assessed as increase in cleaved caspase 3 at 15 uM after 48 hrs by immunofluorescence assay; type: functional, cell-based
[39] = Induction of apoptosis in human GSC-3 cells assessed as early apoptotic cells at 10 uM incubated for 36 hrs by Annexin V-FITC/PI staining based flow cytometric analysis (reference value: 6.99%); type: functional
[40] = tested on: HEK-293T; test: Cytotoxicity against human 293T cells assessed as inhibition of cell growth at 20 uM after 5 days; type: cell-based; details: 120 h, time 5 day
[41] = tested on: GSC-18; test: Inhibition of colony formation in human GSC-18 cells assessed as tumor spheres damage at 15 uM after 2 weeks by crystal violet staining based assay; type: functional, cell-based
[42] = tested on: GSC-18; test: Inhibition of colony formation in human GSC-18 cells assessed as decrease in number of tumor spheres at 15 uM after 2 weeks by crystal violet staining based assay; type: functional, cell-based
[43] = Induction of apoptosis in human GSC-3 cells assessed as necrotic cells at 10 uM incubated for 36 hrs by Annexin V-FITC/PI staining based flow cytometric analysis (reference value: 1.42%); type: functional
[44] = tested on: HEK-293T; test: Induction of apoptosis in human 293T cells assessed as accumulation of ROS by measuring increase in NOX1 expression at 15 uM after 48 hrs by transcriptome analysis; type: functional, cell-based
[45] = tested on: GSC-3; test: Induction of apoptosis in human GSC-3 cells assessed as accumulation of ROS by measuring increase in NOX1 expression at 15 uM after 48 hrs by transcriptome analysis; type: functional, cell-based
[46] = tested on: GSC-18; test: Induction of apoptosis in human GSC-18 cells assessed as ROS accumulation at 4 to 12 uM after 3 hrs in presence of NAC by DCFH-DA assay; type: functional, cell-based; details: dose 4-12 µM
[47] = tested on: HUVEC; test: Cytotoxicity against HUVEC assessed as reduction in cell viability after 72 hrs by MTS assay; type: cell-based, Homo sapiens; details: Homo sapiens, HUVEC

Structure (SMILES): CC1=C(CC[C@H](C)CO[C@@H]2O[C@H](CO)[C@@H](O)[C@H](O)[C@H]2O)O[C@H]2C[C@H]3[C@@H]4CC[C@@H]5C[C@@H](O[C@@H]6O[C@H](CO)[C@@H](O[C@@H]7O[C@@H](C)[C@H](O)[C@@H](O)[C@H]7O)[C@H](O)[C@H]6O[C@@H]6O[C@@H](C)[C@H](O)[C@@H](O)[C@H]6O)CC[C@]5(C)[C@H]4CC[C@]3(C)[C@@H]12
- Activity [1]: Active
- Activity [2]: 0.56%
- Activity [3]: Active
- IC50 [4]: 6.6 µM
- IC50 [5]: > 100 µM
- Activity [6]: Non-Toxic
- Activity [7]: Active
- Activity [8]: Active
- Activity [9]: 53.3%
- Activity [10]: Non-Toxic
- Activity [11]: 1.01%
- Activity [12]: Active
- Activity [13]: inactive
- Activity [14]: 5.03%
- IC50 [15]: > 100 µM
- inhibition [16]: Active
- Activity [17]: Active
- IC50 [18]: > 100 µM
- Activity [19]: 19.4%
- viability at 7.5 µM [20]: 74.1%
- Activity [21]: Active
- Activity [22]: Active
- Activity [23]: 4.67%
- Activity [24]: Active
- Activity [25]: Active
- Activity [26]: Non-Toxic
- Activity [27]: 5.46%
- IC50 [28]: 7 µM
- Activity [29]: Active
- Activity [30]: inactive
- Activity [31]: Active
- inhibition [32]: Active
- viability at 10 µM [33]: 60.4%
- Activity [34]: Active
- viability at 20 µM [35]: 41.1%
- Activity [36]: Active
- inhibition [37]: Active
- Activity [38]: Active
- Activity [39]: 34.3%
- Activity [40]: Non-Toxic
- Activity [41]: Active
- inhibition [42]: Active
- Activity [43]: 0.69%
- Activity [44]: inactive
- Activity [45]: Active
- Activity [46]: inactive
- IC50 [47]: > 100 µM
